± gives the expanded uncertainty stated by the source.
Legend:
[1] = 293.15 K, 101.33 kPa, Pycnometric method
[2] = refractive index (Na D-line) (dimensionless); conditions: 293.15 K; 101.33 kPa; Crystal; Standard Abbe refractometry

Row | mass density ([1]; Crystal) | refractive index [2] | mass density ([1]; Liquid) | Compound
1 | 1527 ± 12 kg/m3 | 1.638 ± 0.0008 | – | Cl.N [ammonium chloride (NH4Cl)]
2 | – | – | 810 ± 12 kg/m3 | CCCCO [butan-1-ol]

— the NIST ThermoML archive (doi:10.1016/j.fluid.2014.06.023)
